Data as given in patent US5155109A, “3-piperazinosydnone imines, process for their preparation and their use” (Cassella Aktiengesellschaft, priority 1990, dated 1992).
Structures can show the parent of a compound that is named as a salt.

Test system: spiral strips of the pulmonary artery of the guinea-pig
Assay: Relaxation of potassium-depolarised, CaCl2-contracted pulmonary artery spiral strips (modified method of Godfraind and Kaba and of Schuman et al.)
Details: for IC50: Cavia porcellus, 40 mmol/l potassium depolarised, contraction induced by 0.5 mmol/l CaCl2, cumulative addition in 1/2 log 10 steps, average of 4 to 6 vessel strips, read-out: IC50 (concentration of the test substance which inhibits the contraction by 50%); for Duration of action: time needed after addition of the test substance until the starting value is obtained again
Experimental: The pharmacological action of the compounds of the formula I was determined by a modified method of Godfraind and Kaba (Arch. Int. Pharmacodyn. Ther. 196, (Suppl) 35 to 49, 1972) and of Schuman et al. (Naunyn-Schmiedeberg,s Arch. Pharmacol. 289, 409 to 418, 1975). In this connection, spiral strips of the pulmonary artery of the guinea-pig are depolarised with 40 mmol/1 of potassium after equilibration in calcium-free Tyrode solution. An addition of 0.5 mmol/1 of CaCl2 then induces a contraction. The relaxing action of the test substance is determined by cumulative addition in 1/2 log 10 stepped concentrations. From the concentration-effect curve (abscissa: -log mol/1 of test substance, ordinate: % inhibition of the maximum contraction, average value of 4 to 6 vessel strips), the concentration of the test substance is determined which inhibits the contraction by 50% (=IC50, mol/1). The duration of action of the test substance is given by the time which is needed after the addition of the test substance until the starting value is obtained again. […] On the other hand, the similarly active compound SIN-1 is clearly surpassed by the compounds according to the invention with respect to its duration of action.

SMILES | IC50 | Duration of action
CC1(C)CN(S(C)(=O)=O)CCN1[n+]1cc(=N)o[n-]1.Cl [Example 1, 3-(2,2-Dimethyl-4-methanesulphonylpiperazin-1-yl)sydnone imine hydrochloride] | 1900 nM | 200 min
Cc1ccc(S(=O)(=O)N2CCN([n+]3cc(=N)o[n-]3)C(C)(C)C2)cc1.Cl [Example 2, 3-(2,2-Dimethyl-4-tosylpiperazin-1-yl)sydnone imine hydrochloride] | 650 nM | 220 min
CN(C)S(=O)(=O)N1CCN([n+]2cc(=N)o[n-]2)C(C)(C)C1 [Example 3, 3-(2,2-Dimethyl-4-dimthylaminosulphonylpiperazin-1-yl)sydnone imine hydrochloride] | 2500 nM | 200 min
CCOC(=O)[N-]c1cn(N2CCOCC2)n[o+]1 [Molsidomine, NEthoxycarbonyl-3-morpholinosydnone imine, reference compound] | 300000 nM | 100 min

Now from value to molecule, other results behind:

IC50 | SMILES | Duration of action
3000 nM | CC(C)C(=O)N=c1c[n+](N2CCN(S(C)(=O)=O)CC2(C)C)[n-]o1 [CH3, drawing 12] | 210 min
1000 nM | Cl.N=c1c[n+](N2CCOCC2)[n-]o1 [SIN-1, 3Morpholinosydnone imine hydrochloride, reference compound] | 80 min
